Counter-ions that a name gives are not always drawn.
Tests used:
human FLAP = human FLAP (Homo sapiens (Human), UniProt P20292); assay: FLAP binding assay (HTRF); conditions: human FLAP-containing membranes, HTRF format; average of two assay plates, duplicates; read-out: FLAP Binding wild type HTRF Ki
Summary of the method: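 Samples were run in duplicate on each of two assay plates, the results were averaged, and the signal was expressed as an HTRF ratio.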

[1] = system: leukotriene pathway in human whole blood (LTB4 levels); assay: Human whole blood assay (LTB4); format: cell-based; conditions: human whole blood diluted 1:1 in RPMI, stimulated with calcium ionophore A23187; single replicate
Summary of the method: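 Compounds are pre-incubated 15 min at 37° Celsius in RPMI-diluted (1:1) heparinised whole blood before a 30 min A23187 stimulus (7 μg/mL). Plasma LTB4 is read by immunoassay kit, with IC50 calculated from a 4-parameter equation.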

human FLAP, sequence (P20292 whole entry): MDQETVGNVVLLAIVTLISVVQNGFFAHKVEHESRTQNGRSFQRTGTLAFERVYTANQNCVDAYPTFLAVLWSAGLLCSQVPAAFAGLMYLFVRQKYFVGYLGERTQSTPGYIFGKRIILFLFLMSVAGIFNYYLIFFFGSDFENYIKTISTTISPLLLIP

| SMILES | Ki (human FLAP) | IC50 [1] |
| --- | --- | --- |
| Nc1cnc(-c2ccc(C3CCC3)c(OCCO)c2F)cn1 [Example 250, 2-(3-(5-Aminopyrazin-2-yl)-6-cyclobutyl-2-fluorophenoxy)ethanol] | 0.0992 µM | 0.357 µM |
| Nc1cnc(-c2ccc(C3CCC3)c(Oc3ccnnc3)c2F)cn1 [Example 257, 5-(4-Cyclobutyl-2-fluoro-3-(pyridazin-4-yloxy)phenyl)pyrazin-2-amine] | 0.0311 µM | 0.332 µM |
| Nc1cnc(-c2ccc(C3CCC3)c(Oc3cnccn3)c2F)cn1 [Example 259, 5-(4-Cyclobutyl-2-fluoro-3-(pyrazin-2-yloxy)phenyl)pyrazin-2-amine] | 0.007 µM | 0.134 µM |
| Nc1cnc(-c2ccc(C3CCC3)c(Oc3ccncn3)c2F)cn1 [Example 260, 5-(4-Cyclobutyl-2-fluoro-3-(pyrimidin-4-yloxy)phenyl)pyrazin-2-amine] | 0.0199 µM | 0.197 µM |
| CC(C)CNc1nccc(Oc2c(C3CCC3)ccc(-c3cnc(N)cn3)c2F)n1 [Example 261, 4-(3-(5-Aminopyrazin-2-yl)-6-cyclobutyl-2-fluorophenoxy)-N-isobutylpyrimidin-2-amine trifluoroacetic acid salt] | 0.0013 µM | 0.0401 µM |
| COC(=O)c1ccc2oc(COc3c(C4CCC4)ccc(-c4cnc(N)cn4)c3F)nc2c1 [Example 262, Methyl 2-{[3-(5-aminopyrazin-2-yl)-6-cyclobutyl-2-fluorophenoxy]methyl}-1,3-benzoxazole-5-carboxylate] | 0.0196 µM | 0.16 µM |
| CNc1nc(C)cc(Oc2c(C3CCC3)ccc(-c3cnc(N)cn3)c2F)n1 [Example 269, 4-[3-(5-Aminopyrazin-2-yl)-6-cyclobutyl-2-fluorophenoxy]-N,6-dimethylpyrimidin-2-amine] | 0.0009 µM | 0.0151 µM |
| Nc1cnc(-c2ccc(C3CCC3)c(Oc3nc(N)c4ccccc4n3)c2F)cn1 [Example 272, 2-[3-(5-Aminopyrazin-2-yl)-6-cyclobutyl-2-fluorophenoxy]quinazolin-4-amine] | 0.0005 µM | 0.0419 µM |
| N#CCOc1c(C2CCC2)ccc(-c2cnc(N)cn2)c1F [Example 276, [3-(5-Aminopyrazin-2-yl)-6-cyclobutyl-2-fluorophenoxy]acetonitrile] | 0.0392 µM | 0.406 µM |
| Nc1cnc(-c2ccc(C3CC3)c(Oc3nccc(N)n3)c2F)cn1 [Example 279, 2-[3-(5-Aminopyrazin-2-yl)-6-cyclopropyl-2-fluorophenoxy]pyrimidin-4-amine] | 0.0675 µM | 0.147 µM |
| Nc1cnc(-c2ccc(C3CCC3)c(OCc3nc(C(=O)O)co3)c2F)cn1 [Example 282, 2-{[3-(5-Aminopyrazin-2-yl)-6-cyclobutyl-2-fluorophenoxy]methyl}-1,3-oxazole-4-carboxylic acid trifluoroacetic acid salt] | 0.0294 µM | > 10 µM |
| Nc1cnc(-c2ccc(C3CCC3)c(OCc3ccc(Cl)cn3)c2F)cn1 [Example 289, 5-{3-[(5-Chloropyridin-2-yl)methoxy]-4-cyclobutyl-2-fluorophenyl}pyrazin-2-amine trifluoroacetic acid salt] | 0.229 µM | 0.782 µM |
| N#Cc1cccc(COc2c(C3CCC3)ccc(-c3cnc(N)cn3)c2F)n1 [Example 292, 6-{[3-(5-Aminopyrazin-2-yl)-6-cyclobutyl-2-fluorophenoxy]methyl}pyridine-2-carbonitrile trifluoroacetic acid salt] | 0.0372 µM | 0.413 µM |
| Nc1cnc(-c2ccc(C3CCC3)c(OCCNc3cnccn3)c2F)cn1 [Example 295, 5-{4-Cyclobutyl-2-fluoro-3-[2-(pyrazin-2-ylamino)ethoxy]phenyl}pyrazin-2-amine trifluoroacetic acid salt] | 0.0042 µM | 0.149 µM |
| Nc1cnc(-c2ccc(C3CCC3)c(OCCNc3ncccn3)c2F)cn1 [Example 296, N-{2-[3-(5-Aminopyrazin-2-yl)-6-cyclobutyl-2-fluorophenoxy]ethyl}pyrimidin-2-amine trifluoroacetic acid salt] | 0.0068 µM | 0.35 µM |
| Nc1cnc(-c2ccc(C3CCC3)c(OCCNc3ccncn3)c2F)cn1 [Example 297, N-{2-[3-(5-Aminopyrazin-2-yl)-6-cyclobutyl-2-fluorophenoxy]ethyl}pyrimidin-4-amine] | 0.0144 µM | 0.263 µM |
| CCCc1ccc(-c2cnc(N)cn2)c(F)c1Oc1ncccn1 [Example 319, 5-[2-Fluoro-4-propyl-3-(pyrimidin-2-yloxy)phenyl]pyrazin-2-amine] | 0.337 µM | 0.285 µM |
| CC(C)Cc1ccc(-c2cnc(N)cn2)c(F)c1Oc1ncccn1 [Example 323, 5-(2-Fluoro-4-isobutyl-3-(pyrimidin-2-yloxy)phenyl)pyrazin-2-amine] | 0.211 µM | 0.141 µM |
| CC(C)(C)Cc1ccc(-c2cnc(N)cn2)c(F)c1Oc1ncccn1 [Example 324, 5-(2-Fluoro-4-neopentyl-3-(pyrimidin-2-yloxy)phenyl)pyrazin-2-amine] | 0.0738 µM | 0.26 µM |
| Nc1cnc(-c2ccc(C3CCCCC3)c(Oc3nccc(N)n3)c2F)cn1 [Example 325, 2-(3-(5-Aminopyrazin-2-yl)-6-cyclohexyl-2-fluorophenoxy)pyrimidin-4-amine] | 0.0095 µM | 0.0527 µM |

Further compounds by falling Ki (human FLAP), results first:

| Ki (human FLAP) | IC50 [1] | SMILES |
| --- | --- | --- |
| 0.198 µM | 0.464 µM | CCc1ccc(-c2cnc(N)cn2)c(F)c1Oc1nccc(N)n1 [Example 317, 2-[3-(5-Aminopyrazin-2-yl)-6-ethyl-2-fluorophenoxy]pyrimidin-4-amine] |
| 0.138 µM | 1.96 µM | COC(=O)c1ccc(O)c(NC(=O)COc2c(C3CCC3)ccc(-c3cnc(N)cn3)c2F)c1 [Example 263, Methyl 3-({[3-(5-aminopyrazin-2-yl)-6-cyclobutyl-2-fluorophenoxy]acetyl}amino)-4-hydroxybenzoate] |
| 0.117 µM | > 10 µM | Nc1cnc(-c2ccc(CC3CCCCC3)c(Oc3ncccn3)c2F)cn1 [Example 321, 5-(4-(Cyclohexylmethyl)-2-fluoro-3-(pyrimidin-2-yloxy)phenyl)pyrazin-2-amine] |
| 0.113 µM | 0.312 µM | CC(C)Cc1ccc(-c2cnc(N)cn2)c(F)c1Oc1nccc(N)n1 [Example 328, 2-(3-(5-Aminopyrazin-2-yl)-2-fluoro-6-isobutylphenoxy)pyrimidin-4-amine] |
| 0.101 µM | 0.37 µM | COC(=O)c1coc(COc2c(C3CCC3)ccc(-c3cnc(N)cn3)c2F)n1 [Example 281, Methyl 2-{[3-(5-aminopyrazin-2-yl)-6-cyclobutyl-2-fluorophenoxy]methyl}-1,3-oxazole-4-carboxylate trifluoroacetic acid salt] |
| 0.1 µM | 0.216 µM | Nc1cnc(-c2ccc(C3CC3)c(Oc3ncccn3)c2F)cn1 [Example 278, 5-[4-Cyclopropyl-2-fluoro-3-(pyrimidin-2-yloxy)phenyl]pyrazin-2-amine] |
| 0.0581 µM | 0.103 µM | CC(C)c1ccc(-c2cnc(N)cn2)c(F)c1Oc1ncccn1 [Example 318, 5-[2-Fluoro-4-(1-methylethyl)-3-(pyrimidin-2-yloxy)phenyl]pyrazin-2-amine] |
| 0.0466 µM | 0.576 µM | Cc1cc(COc2c(C3CCC3)ccc(-c3cnc(N)cn3)c2F)no1 [Example 291, 5-{4-Cyclobutyl-2-fluoro-3-[(5-methylisoxazol-3-yl)methoxy]phenyl}pyrazin-2-amine trifluoroacetic acid salt] |
| 0.0399 µM | 0.506 µM | N#Cc1ccc(COc2c(C3CCC3)ccc(-c3cnc(N)cn3)c2F)cn1 [Example 290, 5-{[3-(5-Aminopyrazin-2-yl)-6-cyclobutyl-2-fluorophenoxy]methyl}pyridine-2-carbonitrile trifluoroacetic acid salt] |
| 0.0296 µM | > 1 µM | Nc1cnc(-c2ccc(C3CCC3)c(OCC3CCCO3)c2F)cn1 (stereo not drawn) [Example 252, 5-(4-Cyclobutyl-2-fluoro-3-((tetrahydrofuran-2-yl)methoxy)phenyl)pyrazin-2-amine] |
| 0.0177 µM | 0.135 µM | Nc1cnc(-c2ccc(C3CCC3)c(Oc3cccnn3)c2F)cn1 [Example 277, 5-[4-Cyclobutyl-2-fluoro-3-(pyridazin-3-yloxy)phenyl]pyrazin-2-amine] |
| 0.0165 µM | 1 µM | Nc1cnc(-c2ccc(C3CCC3)c(OCCN3C(=O)c4ccccc4C3=O)c2F)cn1 [Example 293, 2-{2-[3-(5-aminopyrazin-2-yl)-6-cyclobutyl-2-fluorophenoxy]ethyl}-1H-isoindole-1,3(2H)-dione] |
| 0.0097 µM | 0.039 µM | NC(=O)c1ncc(Oc2c(C3CCC3)ccc(-c3cnc(N)cn3)c2F)cn1 [Example 329, 5-(3-(5-Aminopyrazin-2-yl)-6-cyclobutyl-2-fluorophenoxy)pyrimidine-2-carboxamide] |
| 0.0038 µM | 0.0101 µM | Nc1cnc(-c2ccc(C3CCC3)c(Oc3nccnc3N)c2F)cn1 [Example 258, 3-(3-(5-Aminopyrazin-2-yl)-6-cyclobutyl-2-fluorophenoxy)pyrazin-2-amine] |
| 0.0037 µM | 0.0129 µM | Cc1csc2ncnc(Oc3c(C4CCC4)ccc(-c4cnc(N)cn4)c3F)c12 [Example 331, 5-(4-Cyclobutyl-2-fluoro-3-((5-methylthieno[2,3-d]pyrimidin-4-yl)oxy)phenyl)pyrazin-2-amine] |
| 0.0024 µM | 0.027 µM | Nc1cnc(-c2ccc(C3CCC3)c(Oc3ncc(-c4cnc(N)nc4)cn3)c2F)cn1 [Example 313, 2′-[3-(5-Aminopyrazin-2-yl)-6-cyclobutyl-2-fluorophenoxy]-5,5′-bipyrimidin-2-amine] |
